According to PubChem BioAssay (NCI):
“And” between values parts separate entries of the source, which are not always exact repeats. Equal values may be shown once.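 Assay format: 96-well plates, 48-hour exposure. Abbreviation: GI50, concentration required for 50% inhibition of growth. TGI is the concentration that stops growth completely.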

Experiments:
Experiment in all cases: inhibition of tumour cell growth, NCI panel, 48 h
NCI-H460 lung = system: NCI-H460 lung
SK-MEL-2 melanoma = system: SK-MEL-2 melanoma
SK-MEL-28 melanoma = system: SK-MEL-28 melanoma
HCC-2998 colon = system: HCC-2998 colon
KM12 colon = system: KM12 colon
PC-3 prostate = system: PC-3 prostate
HCT-15 colon = system: HCT-15 colon
HCT-116 colon = system: HCT-116 colon
MALME-3M melanoma = system: MALME-3M melanoma
BT-549 breast = system: BT-549 breast

Structure (SMILES)	GI50 (NCI-H460 lung)	TGI (NCI-H460 lung)	GI50 (SK-MEL-2 melanoma)	TGI (SK-MEL-2 melanoma)	GI50 (SK-MEL-28 melanoma)	TGI (SK-MEL-28 melanoma)	GI50 (HCC-2998 colon)	TGI (HCC-2998 colon)	GI50 (KM12 colon)	TGI (KM12 colon)	GI50 (PC-3 prostate)	TGI (PC-3 prostate)	TGI (HCT-15 colon)	TGI (HCT-116 colon)	TGI (MALME-3M melanoma)	GI50 (HCT-15 colon)	GI50 (HCT-116 colon)	TGI (BT-549 breast)
CCCCCCOc1ccc(C(=N)N(CCCC)CCCC)c2ccccc12	1.56 µM	3.01 µM	1.72 µM	3.23 µM	1.77 µM	3.2 µM	1.59 µM	3.03 µM	1.61 µM	3.09 µM	1.53 µM	3.05 µM						
N#CCCC1(CCC#N)CCCCCCC(CCC#N)(CCC#N)C(O)C1O (stereo not given)		> 100 µM		> 100 µM		> 100 µM		> 100 µM		> 100 µM		> 100 µM	> 100 µM	> 100 µM	> 100 µM			
CC1(C)COC(c2c(-c3ccccc3)noc2CS(=O)c2ccccc2)=N1 (stereo not given)		> 100 µM		70.2 µM		> 100 µM		> 100 µM		> 100 µM			> 100 µM	> 100 µM	> 100 µM			
CC(=O)c1ccc(NC(=O)CSc2nc(C)nc3c2sc(=S)n3-c2ccccc2)cc1		> 3.16 µM		> 3.16 µM		> 3.16 µM		> 3.16 µM		> 3.16 µM			> 3.16 µM	> 3.16 µM	> 3.16 µM			
OC12CCCCCC1(N1CCOCC1)c1ccccc12 (stereo not given)		> 100 µM		> 100 µM		> 100 µM		> 100 µM		> 100 µM			> 100 µM	> 100 µM	> 100 µM			
CC(C)(C)CC(C)(C)c1ccc(OCCOCC[N+](C)(C)Cc2ccccc2)cc1	1.58 µM	3.43 µM and 11.7 µM		9.71 µM		3.68 µM		4.05 µM					63.6 µM and 51.3 µM	2.69 µM and 3.55 µM	3.64 µM	16.6 µM	1.38 µM	
C/C(=C\Cc1cc(O)ccc1O)CCc1c(C)cc(O)c(C=O)c1C		67.2 µM		58.6 µM		54.7 µM		> 100 µM		> 100 µM			84.5 µM	41 µM	53.8 µM			
CCOC1=C2NC(Cc3ccc(F)cc3)=NC2C(=O)c2ccccc21 (stereo not given)		52.4 µM		44.2 µM		67.8 µM		> 100 µM		> 100 µM					55.8 µM			
COC(=O)C(NC(=O)CSc1nnc(COc2ccc(Cl)cc2)n1-c1ccccc1)C(C)C (stereo not given)		99.3 µM		35.1 µM		51.6 µM		38.7 µM		38.5 µM		50.9 µM	> 100 µM	31.4 µM	31.9 µM			
COc1cccc(CN(C(=O)/C=C\Sc2ccccc2)C(C)(C)C)c1				> 100 µM		> 100 µM		> 100 µM		> 100 µM		> 100 µM	> 100 µM	> 100 µM				> 100 µM
COc1ccc(-c2c3ccccc3c(-c3ccc(OCCCCCBr)cc3)c3ccccc23)cc1		> 100 µM		> 100 µM		> 100 µM		> 100 µM		> 100 µM			> 100 µM	> 100 µM	> 100 µM			
Cc1cc2occ(-c3ccc(Cl)cc3)c2c(=O)o1		> 100 µM		> 100 µM		> 100 µM				> 100 µM			> 100 µM	> 100 µM	> 100 µM			
c1ccc(OCCSCCCCCCCCCCSCCOc2ccccc2)cc1		> 100 µM		> 100 µM		> 100 µM		> 100 µM		> 100 µM			> 100 µM		90.4 µM			
O=CNNC(=O)Nc1ccc(Cl)cc1						> 100 µM		> 100 µM		> 100 µM			> 100 µM	> 100 µM	> 100 µM			
CNc1ccc(S(=O)Nc2ccccc2)cc1 (stereo not given)		> 100 µM		> 100 µM		> 100 µM		> 100 µM		> 100 µM			> 100 µM	> 100 µM	> 100 µM			
O=C1/C(=C\c2cccc(Oc3ccccc3)c2)SC(c2ccccc2)N1c1cccc([N+](=O)[O-])c1 (stereo not given)		> 100 µM		> 100 µM		> 100 µM		> 100 µM		> 100 µM			> 100 µM	> 100 µM	> 100 µM			> 100 µM
Cc1c2cccc-2ccc2c1[nH]c1ccccc12		3.57 µM		3.39 µM		3.67 µM				5.57 µM		3.45 µM	9.01 µM	4.96 µM	4.03 µM			9.56 µM
CCOC(=O)c1nc2ccccc2nc1NCc1ccc(Cl)cc1Cl		> 100 µM		> 100 µM						> 100 µM		> 100 µM	> 100 µM	> 100 µM	> 100 µM			> 100 µM
CC(=O)Nc1ccc(C(=O)N2N=C(C)/C(=C/c3ccc(O)cc3)C2=O)cc1		> 100 µM		> 100 µM		> 100 µM		> 100 µM		> 100 µM			> 100 µM	> 100 µM	> 100 µM			
Cc1ccc2c(c1)CC1(C2=O)[C@H](c2ccccc2)C2C(=O)c3ccc(C)cc3C2[C@H]1c1ccccc1 (stereo not given in full)		> 100 µM				> 100 µM		> 100 µM		> 100 µM		> 100 µM	> 100 µM	> 100 µM	> 100 µM			> 100 µM
Nc1c(N=Nc2ccc(-c3ccc(N=Nc4c(O)ccc5cc(S(=O)(=O)O)cc(S(=O)(=O)O)c45)cc3)cc2)c(S(=O)(=O)O)cc2cc(S(=O)(=O)O)c(N=Nc3ccccc3)c(O)c12		> 100 µM		> 100 µM		> 100 µM		> 100 µM		> 100 µM			> 100 µM	> 100 µM	> 100 µM			
O=C(CSc1nc2ccc(I)cc2c(=O)n1Cc1ccccc1)NN1C(=O)CCC1=O		> 100 µM		> 100 µM		> 100 µM		> 100 µM		> 100 µM		> 100 µM	> 100 µM	> 100 µM				
CC(=O)O[C@H]1C(=O)N(c2cc3c4ccccc4ccc3c3ccccc23)[C@@H]1c1ccccc1		> 100 µM		9.4 µM		66.4 µM		26.8 µM		27.1 µM		65.3 µM	> 100 µM	14.4 µM	54.1 µM			
